Measured values as given in EP0562731A1, “Substituted pyridinesulfonamide compounds or their salts, process for preparing the same, and herbicides containing the same” (ISHIHARA SANGYO KAISHA, Ltd., priority 1992, dated 1993).

Assays:
Assay in all cases: Test Example 1: foliar application pot test, visual growth control rating
Type in all cases: in vivo
Design in all cases: key: 1: the same as in an untreated plot; 10: perfect growth control
Conditions in all cases: wettable powder, observed 20 to 31 days after application
corn (Zea mays) = tested on: corn (Zea mays)
Description: (§1) 1/1,500 are [are (a) = 100 m²] pots were filled with upland farming soil, which in the pots was then sown with a variety of plants. The plants grown will be enumerated below.
(§2) When each plant reached a given growth stage (a 1.2- to 3.0-leaf stage for rice, primary leaf to a 0.7-leaf stage for soybean, 2.1- to 3.6-leaf stage for corn, cotyledon to 0.7-leaf stage for cotton, 2.0- to 3.0-leaf stage for wheat, 0.3- to 3.4-leaf stage for cocklebur, 0.3- to 1.6-leaf stage for morning glory, 0.1- to 1.3-leaf stage for prickly sida, 0.1- to 1.3-leaf stage for slender amaranth, 1.5- to 3.2-leaf stage for barnyard glass, and 1.2- to 3.0-leaf stage for large crabgrass), a predetermined amount of the herbicide of the present invention in the form of a wettable powder, weighed out, diluted with 5 ℓ/a of water and admixed with 0.2 or 0.1 vol%, based on the resulting composition, of an agricultural spreader, was foliarly applied to the plant with a small spray gun. The progress of growth of the plant was visually observed 20 to 31 days after the foliar application to evaluate the degree of growth control according to 10 ratings (1: the same as in an untreated plot - 10: perfect growth control).

rice (Oryza sativa) = tested on: rice (Oryza sativa)
Description: as §1, §2

[1] = tested on: prickly sida (Sida spinosa)
Description: as §1, §2

[2] = tested on: slender amaranth (Amaranthus viridis)
Description: as §1, §2

[3] = tested on: barnyard grass (Echinochloa crus-galli)
Description: as §1, §2

[4] = tested on: cocklebur (Xanthium strumarium)
Description: as §1, §2

wheat (Triticum) = tested on: wheat (Triticum)
Description: as §1, §2

soybean (Glycine max) = tested on: soybean (Glycine max)
Description: as §1, §2

[5] = tested on: large crabgrass (Digitaria adscendens)
Description: as §1, §2

[6] = tested on: morning glory (Ipomoea purpurea)
Description: as §1, §2

Row | Structure (SMILES) | degree of growth control, ZE (corn (Zea mays); 0.31 g/a active ingredient) | degree of growth control, ZE (corn (Zea mays); 1.25 g/a active ingredient) | degree of growth control, OR (rice (Oryza sativa); 0.31 g/a active ingredient) | degree of growth control, OR (rice (Oryza sativa); 1.25 g/a active ingredient) | degree of growth control, SI ([1]; 0.31 g/a active ingredient) | degree of growth control, SI ([1]; 1.25 g/a active ingredient) | degree of growth control, AM ([2]; 0.31 g/a active ingredient) | degree of growth control, AM ([2]; 1.25 g/a active ingredient) | degree of growth control, EC ([3]; 0.31 g/a active ingredient) | degree of growth control, EC ([3]; 1.25 g/a active ingredient) | degree of growth control, XA ([4]; 0.31 g/a active ingredient) | degree of growth control, XA ([4]; 1.25 g/a active ingredient) | degree of growth control, TR (wheat (Triticum); 0.31 g/a active ingredient) | degree of growth control, TR (wheat (Triticum); 1.25 g/a active ingredient) | degree of growth control, GL (soybean (Glycine max); 0.31 g/a active ingredient) | degree of growth control, GL (soybean (Glycine max); 1.25 g/a active ingredient) | degree of growth control, DI ([5]; 0.31 g/a active ingredient) | degree of growth control, DI ([5]; 1.25 g/a active ingredient) | degree of growth control, IP ([6]; 0.31 g/a active ingredient) | degree of growth control, IP ([6]; 1.25 g/a active ingredient)
1 | CCN(c1cccc(S(=O)(=O)NC(=O)Nc2nc(OC)nc(OC)n2)n1)S(=O)(=O)C(C)Cl (racemic) [Compound No. 55, 6-[[N-(1-chloroethylsulfonyl)-N-ethyl]amino]-N-[[(4,6-dimethoxytriazin-2-yl)amino]carbonyl]-2-pyridinesulfonamide] | 10 | 10 | 9 | 9 | 6 | 6 | 6 | 6 | 10 | 10 | 10 | 10 |  |  |  |  |  |  |  | 
2 | CCN(c1cccc(S(=O)(=O)NC(=O)Nc2nc(C)nc(OC)n2)n1)S(=O)(=O)C(C)F (racemic) [compound 58] |  |  |  |  |  |  |  |  |  |  |  |  | 2 | 2 | 1 | 1 | 7 | 7 |  | 
3 | CCN(c1cccc(S(=O)(=O)NC(=O)Nc2nc(C)nc(OC)n2)n1)S(=O)(=O)C(C)Br (racemic) [compound 78] | 10 | 10 |  |  |  |  |  |  | 10 | 10 | 10 | 10 |  |  |  |  |  |  | 10 | 10
4 | CCC(C)N(c1cccc(S(=O)(=O)NC(=O)Nc2nc(C)nc(OC)n2)n1)S(=O)(=O)CC(C)C (racemic) [compound 80] |  |  |  |  | 3 | 3 |  |  |  |  | 6 | 6 |  |  |  |  | 2 | 2 | 5 | 5
5 | CCC(C)N(c1cccc(S(=O)(=O)NC(=O)Nc2nc(C)nc(OC)n2)n1)S(=O)(=O)C(C)CC (racemic) [compound 81] |  | 2 |  | 5 |  | 2 |  | 3 |  | 6 |  | 9 |  | 2 |  | 6 |  | 3 |  | 6
6 | CCCCS(=O)(=O)N(c1cccc(S(=O)(=O)NC(=O)Nc2nc(C)nc(OC)n2)n1)C(C)CC (racemic) [compound 84] |  |  |  |  |  |  |  |  | 5 | 5 |  |  |  |  |  |  |  |  | 6 | 6
7 | COc1nc(C)nc(NC(=O)NS(=O)(=O)c2cccc(N(C)S(=O)(=O)C(C)Cl)n2)n1 (racemic) [compound 85] | 10 | 10 |  |  |  |  |  |  | 10 | 10 |  |  |  |  |  |  |  |  |  | 
8 | CCCN(c1cccc(S(=O)(=O)NC(=O)Nc2nc(C)nc(OC)n2)n1)S(=O)(=O)C(C)Cl (racemic) [compound 86] | 10 | 10 |  |  |  |  |  |  | 10 | 10 |  |  |  |  |  |  |  |  | 10 | 10
9 | COc1nc(C)nc(NC(=O)NS(=O)(=O)c2cccc(N(C(C)C)S(=O)(=O)C(C)Cl)n2)n1 (racemic) [compound 93] |  |  | 9 | 9 |  |  | 9 | 9 |  |  | 10 | 10 |  |  |  |  |  |  | 9 | 9
10 | CCN(c1cccc(S(=O)(=O)NC(=O)Nc2nc(C)nc(OC)n2)n1)S(=O)(=O)C(C)C [Compound No. 1, 6-[(N-ethyl-N-isopropylsulfonyl)amino]-N-[[(4-methoxy-6-methyltriazin-2-yl)amino]carbonyl]-2-pyridinesulfonamide] |  |  |  |  |  |  | 10 | 10 |  |  |  |  | 8 | 8 |  |  | 8 | 8 |  | 
